Where only a bound is given, the exact number is not on record here.

This is an account of results in ChEMBL document CHEMBL1141309, “Isoechinulin-type alkaloids, variecolorins A-L, from halotolerant Aspergillus variecolor” (J Nat Prod, 2007).

The nature of assay [1]: DPPH radical scavenging activity. The class given is functional.
The subject of another assay is P388. Description: Cytotoxicity against mouse P388 cells after 72 hrs by MTT assay. The class given is functional, cell-based. The note with it: P388, 72 h.
Another assay deals with HL-60. Description: Cytotoxicity against human HL60 cells after 72 hrs by MTT assay. It is filed as functional, cell-based. As to conditions: HL-60, 72 h.
The subject of the next assay is Bel-7402. Description: Cytotoxicity against human BEL-7402 cells after 24 hrs by SRB assay. The class given is functional, cell-based. The note with it: Bel-7402, 24 h.
Assay [2] is described as follows: Cytotoxicity against human […] cells after 24 hrs by SRB assay. It is filed as functional, cell-based.

With `O=C1O[C@H]([C@@H](O)CO)C(O)=C1O` [ASCORBIC ACID], in assay [1], the IC50 stood at 22 µM.
Same read-out and setting: then `C=CC(C)(C)c1[nH]c2c(CC=C(C)C)cc(CC=C(C)C)cc2c1C[C@@H]1NC(=O)[C@H](C)NC1=O` [ECHINULIN], with 569 µM; and `C=CC(C)(C)c1[nH]c2ccc(CC=C(C)C)cc2c1/C=C1\NC(=O)[C@H](C)NC1=O` [ISOECHINULIN A], with 98 µM; and `C=CC(C)(C)c1[nH]c2ccccc2c1/C=c1\[nH]c(=O)c(=C)[nH]c1=O` [NEOECHINULIN B], with 65 µM.
In the case of `CC(=O)O[C@H]1C(=O)[C@@]2(C)[C@H]([C@H](OC(=O)c3ccccc3)[C@]3(O)C[C@H](OC(=O)[C@H](O)[C@@H](NC(=O)c4ccccc4)c4ccccc4)C(C)=C1C3(C)C)[C@]1(OC(C)=O)CO[C@@H]1C[C@@H]2O` [PACLITAXEL], the IC50 (with P388; with HL-60; with Bel-7402; in assay [2]) was 0.93 µM each time.
With `C=CC(C)(C)c1[nH]c2ccccc2c1C[C@@H]1NC(=O)[C@H](C)NC1=O` [PREECHINULIN], in assay [1], inhibition was half-maximal at 1000 µM (IC50).
The same measure, in the same setting: as for `C=CC(C)(C)c1[nH]c2ccc(CC=C(C)C)cc2c1C[C@@H]1NC(=O)[C@H](C)NC1=O` [TARDIOXOPIPERAZINE A], the figure is 912 µM.
The same measure, in the same setting: then `C=CC(C)(C)c1[nH]c2c(CC=C(C)C)cccc2c1C[C@@H]1NC(=O)[C@H](C)NC1=O` [TARDIOXOPIPERAZINE B], with 899 µM.
As for `C=CC(C)(C)c1[nH]c2ccc(C[C@@H](O)C(C)(C)Cl)cc2c1/C=C1\NC(=O)[C@H](C)NC1=O` [VARIECOLORIN A], the IC50 is 79 µM in assay [1]; over 50 µM in the assay on P388; over 50 µM in the assay with HL-60; over 50 µM in the assay with Bel-7402; over 50 µM in assay [2].
Regarding `C=CC(C)(C)c1[nH]c2ccc(C[C@@H](Cl)C(C)(C)O)cc2c1/C=C1\NC(=O)[C@H](C)NC1=O` [VARIECOLORIN B], the IC50 in assay [1] was 97 µM; with P388 it was over 50 µM; in the assay with HL-60, over 50 µM; with Bel-7402, over 50 µM; in assay [2] it was over 50 µM.
With `C=CC(C)(C)c1[nH]c2ccc(C[C@@H](O)C(=C)C)cc2c1/C=C1\NC(=O)[C@H](C)NC1=O` [VARIECOLORIN C], the IC50 in assay [1] is 75 µM; with P388, over 50 µM; in the assay on HL-60, over 50 µM; in the assay with Bel-7402, over 50 µM; in assay [2], over 50 µM.
`C=CC(C)(C)c1[nH]c2ccc(C[C@H]3OC(C)(C)OC3(C)C)cc2c1/C=C1\NC(=O)[C@H](C)NC1=O` [VARIECOLORIN D]: the IC50 in assay [1] is 88 µM; in the assay on P388 it was over 50 µM; with HL-60, over 50 µM; in the assay on Bel-7402 it was over 50 µM; in assay [2] it was over 50 µM.
`C=CC(C)(C)c1[nH]c2ccc(CC(=O)C(C)C)cc2c1/C=C1\NC(=O)[C@H](C)NC1=O` [VARIECOLORIN E]: the IC50 in assay [1] was 79 µM; with P388 it was over 50 µM; in the assay on HL-60 it was over 50 µM; in the assay on Bel-7402, over 50 µM; in assay [2], over 50 µM.
For `C=CC(C)(C)c1[nH]c2c(C[C@@H](O)C(C)(C)Cl)cccc2c1/C=C1\NC(=O)[C@H](C)NC1=O` [VARIECOLORIN F], the IC50 was 77 µM in assay [1]; over 50 µM in the assay with P388; over 50 µM in the assay with HL-60; over 50 µM in the assay with Bel-7402; over 50 µM in assay [2].
`C=CC(C)(C)c1[nH]c2c(CC=C(C)C)cccc2c1/C=C1\NC(=O)[C@H](C)NC1=O` [VARIECOLORIN G]: the IC50 in assay [1] was 86 µM; in the assay with P388 it was over 50 µM; with HL-60 it was over 50 µM; in the assay on Bel-7402, over 50 µM; in assay [2], over 50 µM.
For `C=CC(C)(C)c1[nH]c2ccccc2c1/C=C1\NC(=O)C(C)(OC)NC1=O` (stereo unspecified) [VARIECOLORIN H], the IC50 in assay [1] was 99 µM; in the assay on P388, over 50 µM; in the assay with HL-60, over 50 µM; with Bel-7402 it was over 50 µM; in assay [2], over 50 µM.
Turning to `C=CC(C)(C)c1[nH]c2ccc(CC=C(C)C)cc2c1/C=C1\NC(=O)C(C)(OC)NC1=O` (stereo unspecified) [VARIECOLORIN I], the IC50 in assay [1] is 79 µM; in the assay with P388, over 50 µM; in the assay on HL-60 it was over 50 µM; in the assay on Bel-7402, over 50 µM; in assay [2], over 50 µM.
Consider `C=CC(C)(C)c1[nH]c2ccc(CC=C(C)C)cc2c1/C=C1\NC(=O)C(=O)NC1=O` [VARIECOLORIN J], for which the IC50 in assay [1] is 102 µM; with P388 it was over 50 µM; with HL-60, over 50 µM; with Bel-7402 it was over 50 µM; in assay [2] it was over 50 µM.
Turning to `C=CC(C)(C)c1[nH]c2cc3c(cc2c1/C=C1\NC(=O)[C@H](C)NC1=O)C[C@H](C(C)(C)O)OC3(C)C` [VARIECOLORIN K], the IC50 is 89 µM in assay [1]; over 50 µM in the assay with P388; over 50 µM in the assay with HL-60; over 50 µM in the assay with Bel-7402; over 50 µM in assay [2].
With `C=CC(C)(C)c1[nH]c2ccc(CC=C(C)C)c(CC=C(C)C)c2c1C[C@@H]1NC(=O)[C@H](C)NC1=O` [VARIECOLORIN L], the IC50 in assay [1] is 623 µM; in the assay on P388 it was over 50 µM; with HL-60, over 50 µM; with Bel-7402 it was over 50 µM; in assay [2], over 50 µM.
